Tests used:
Assay in all cases: NCI-60 antiproliferative screen (SRB)
HL-60(TB) = assay type: cell-based, human; conditions: Homo sapiens; 10 µM single dose, 48 h; HL-60(TB) (Leukemia); read-out: Growth inhibition (%)
K-562 = assay type: cell-based, human; conditions: Homo sapiens, K562; 10 µM single dose, 48 h; K-562 (Leukemia); read-out: Growth inhibition (%)
EKVX = assay type: cell-based, human; conditions: Homo sapiens; 10 µM single dose, 48 h; EKVX (NSCLC); read-out: Growth inhibition (%)
NCI-H322M = assay type: cell-based, human; conditions: Homo sapiens; 10 µM single dose, 48 h; NCI-H322M (NSCLC); read-out: Growth inhibition (%)
NCI-H460 = assay type: cell-based, human; conditions: Homo sapiens; 10 µM single dose, 48 h; NCI-H460 (NSCLC); read-out: Growth inhibition (%)
NCI-H522 = assay type: cell-based, human; conditions: Homo sapiens; 10 µM single dose, 48 h; NCI-H522 (NSCLC); read-out: Growth inhibition (%)
HCT-116 = assay type: cell-based, human; conditions: Homo sapiens; 10 µM single dose, 48 h; HCT-116 (Colon); read-out: Growth inhibition (%)
HT29 = assay type: cell-based, human; conditions: Homo sapiens, HT-29; 10 µM single dose, 48 h; HT29 (Colon); read-out: Growth inhibition (%)
SF-295 = assay type: cell-based, human; conditions: Homo sapiens; 10 µM single dose, 48 h; SF-295 (CNS); read-out: Growth inhibition (%)
SNB-19 = assay type: cell-based, human; conditions: Homo sapiens; 10 µM single dose, 48 h; SNB-19 (CNS); read-out: Growth inhibition (%)
U251 = assay type: cell-based, human; conditions: Homo sapiens, U-251; 10 µM single dose, 48 h; U251 (CNS); read-out: Growth inhibition (%)
LOX IMVI = assay type: cell-based, human; conditions: Homo sapiens; 10 µM single dose, 48 h; LOX IMVI (Melanoma); read-out: Growth inhibition (%)
MALME-3M = assay type: cell-based, human; conditions: Homo sapiens; 10 µM single dose, 48 h; MALME-3M (Melanoma); read-out: Growth inhibition (%)
M14 = assay type: cell-based, human; conditions: Homo sapiens; 10 µM single dose, 48 h; M14 (Melanoma); read-out: Growth inhibition (%)
MDA-MB-435 = assay type: cell-based, human; conditions: Homo sapiens; 10 µM single dose, 48 h; MDA-MB-435 (Melanoma); read-out: Growth inhibition (%)
UACC-257 = assay type: cell-based, human; conditions: Homo sapiens; 10 µM single dose, 48 h; UACC-257 (Melanoma); read-out: Growth inhibition (%)
UACC-62 = assay type: cell-based, human; conditions: Homo sapiens; 10 µM single dose, 48 h; UACC-62 (Melanoma); read-out: Growth inhibition (%)
IGROV1 = assay type: cell-based, human; conditions: Homo sapiens, IGROV-1; 10 µM single dose, 48 h; IGROV1 (Ovarian); read-out: Growth inhibition (%)
NCI/ADR-RES = assay type: cell-based, human; conditions: Homo sapiens; 10 µM single dose, 48 h; NCI/ADR-RES (Ovarian); read-out: Growth inhibition (%)
786-0 = assay type: cell-based, human; conditions: Homo sapiens; 10 µM single dose, 48 h; 786-0 (Renal); read-out: Growth inhibition (%)
RXF 393 = assay type: cell-based, human; conditions: Homo sapiens; 10 µM single dose, 48 h; RXF 393 (Renal); read-out: Growth inhibition (%)
UO-31 = assay type: cell-based, human; conditions: Homo sapiens; 10 µM single dose, 48 h; UO-31 (Renal); read-out: Growth inhibition (%)
PC-3 = assay type: cell-based, human; conditions: Homo sapiens; 10 µM single dose, 48 h; PC-3 (Prostate); read-out: Growth inhibition (%)
DU-145 = assay type: cell-based, human; conditions: Homo sapiens; 10 µM single dose, 48 h; DU-145 (Prostate); read-out: Growth inhibition (%)
HS 578T = assay type: cell-based, human; conditions: Homo sapiens; 10 µM single dose, 48 h; HS 578T (Breast); read-out: Growth inhibition (%)
BT-549 = assay type: cell-based, human; conditions: Homo sapiens; 10 µM single dose, 48 h; BT-549 (Breast); read-out: Growth inhibition (%)
MDA-MB-468 = assay type: cell-based, human; conditions: Homo sapiens; 10 µM single dose, 48 h; MDA-MB-468 (Breast); read-out: Growth inhibition (%)
SR = conditions: Homo sapiens, 48 h, read-out: Growth inhibition (%)
Procedure: (§1) Anticancer activity was tested against 60 cancer cell lines (NCI-60) after 48h treatments with a single dosage of 10 μM of compounds by using sulforhodamine B assay [39] on the traditional 96-well platform. […] The human cancer cell lines of the NCI-60 panel are grown in RPMI 1640 medium supplemented with 5% FBS (fetal bovine serum) and 2 mM L-glutamine. […] For further analysis of promising compounds, five dose screens were performed against the NCI-60 panel. Drug treatments are performed in 5 doses using 10-fold or ½ log dose dilutions.

OVCAR-4 = conditions: Homo sapiens, OVCAR-4, 48 h, read-out: Growth inhibition (%)
Procedure: as §1

OVCAR-3 = assay type: cell-based, human; conditions: Homo sapiens; 10 µM single dose, 48 h; OVCAR-3 (Ovarian); read-out: Growth inhibition (%)

SMILES	inhibition at 10 µM (HL-60(TB))	inhibition at 10 µM (K-562)	inhibition at 10 µM (EKVX)	inhibition at 10 µM (NCI-H322M)	inhibition at 10 µM (NCI-H460)	inhibition at 10 µM (NCI-H522)	inhibition at 10 µM (HCT-116)	inhibition at 10 µM (HT29)	inhibition at 10 µM (SF-295)	inhibition at 10 µM (SNB-19)	inhibition at 10 µM (U251)	inhibition at 10 µM (MALME-3M)	inhibition at 10 µM (M14)	inhibition at 10 µM (MDA-MB-435)	inhibition at 10 µM (UACC-257)	inhibition at 10 µM (UACC-62)	inhibition at 10 µM (IGROV1)	inhibition at 10 µM (NCI/ADR-RES)	inhibition at 10 µM (786-0)	inhibition at 10 µM (UO-31)	further results
O=C1Nc2ccc(Cl)cc2C1=Cc1ccc(OCc2ccccc2)cc1 (mixture of isomers) [Compound 5c, (E/Z)-3-[4-(Benzyloxy)benzylidene]-5-chloroindolin-2-one]	-3.22%	-0.34%	0.85%	-0.07%	-3.66%	2.1%	3.41%	-2.95%	-11.1%	-1.05%	-1.54%	-13%	7.34%	-3.79%	-6.58%	5.69%	-5.14%	1.88%	-2.86%	23.9%	inhibition at 10 µM (LOX IMVI): 0.14%; inhibition at 10 µM (RXF 393): -5.38%; inhibition at 10 µM (PC-3): 12.9%; inhibition at 10 µM (DU-145): -5.61%; inhibition at 10 µM (HS 578T): -2.25%; inhibition at 10 µM (BT-549): -2.68%; inhibition at 10 µM (MDA-MB-468): -0.96%; inhibition at 10 µM (SR): -0.06%; inhibition at 10 µM (OVCAR-4): -7.18%
O=C1Nc2cc(Cl)ccc2C1=Cc1ccc(OCc2ccccc2)cc1 (mixture of isomers) [Compound 5d, (E/Z)-3-[4-(Benzyloxy)benzylidene]-6-chloroindolin-2-one]	-13.1%	6.91%	-0.31%	0.49%	-4.48%	0.19%	2.33%	-5.27%	-14.7%	-3.09%	-4.25%	-15.4%	3.83%	0.59%	-16.1%	4.09%	8.41%	-4.24%	-4.97%	23.8%	inhibition at 10 µM (LOX IMVI): 7.32%; inhibition at 10 µM (RXF 393): -14.2%; inhibition at 10 µM (PC-3): 11.8%; inhibition at 10 µM (DU-145): -1.25%; inhibition at 10 µM (HS 578T): 3.27%; inhibition at 10 µM (BT-549): -1.23%; inhibition at 10 µM (MDA-MB-468): 1.52%; inhibition at 10 µM (SR): -4.93%; inhibition at 10 µM (OVCAR-4): 3.65%
O=C1Nc2ccccc2C1=Cc1ccc(OCc2ccccn2)cc1 (mixture of isomers) [Compound 5e, (E/Z)-3-[4-(Pyridin-2-ylmethoxy]benzylidene) indolin-2-one]	38.8%	59.2%	47.3%	29.5%	15%	24.6%	41.1%	16.2%	27%	39.3%	46.5%	25.4%	8.3%	10.1%	12.6%	40.4%	36.8%	46.7%	18%	61.2%	inhibition at 10 µM (OVCAR-3): 18.2%; inhibition at 10 µM (RXF 393): 44.8%; inhibition at 10 µM (PC-3): 44.3%; inhibition at 10 µM (DU-145): 20.3%; inhibition at 10 µM (BT-549): 41.2%; inhibition at 10 µM (MDA-MB-468): 61.7%; inhibition at 10 µM (SR): 57.7%; inhibition at 10 µM (OVCAR-4): 30.8%
O=C1Nc2ccc(Cl)cc2C1=Cc1ccc(OCc2ccccn2)cc1 (mixture of isomers) [Compound 5g, (E/Z)-5-Chloro-3-[4-(pyridin-2-ylmethoxy)benzylidene] indolin-2-one]	15%	49%	34.3%	35.8%	84%	34%	71.5%	32.5%	15.5%	49.3%	76.3%	61.5%	10.1%	23.1%	-18.2%	33.3%	45.4%	85.9%	74.3%	40.5%	inhibition at 10 µM (LOX IMVI): 43.5%; inhibition at 10 µM (OVCAR-3): 42.7%; inhibition at 10 µM (PC-3): 37.9%; inhibition at 10 µM (DU-145): 12.2%; inhibition at 10 µM (HS 578T): 85.2%; inhibition at 10 µM (BT-549): 21.2%; inhibition at 10 µM (MDA-MB-468): 49.6%; inhibition at 10 µM (SR): 45.1%; inhibition at 10 µM (OVCAR-4): 102%
O=C1Nc2cc(Cl)ccc2C1=Cc1ccc(OCc2ccccn2)cc1 (mixture of isomers) [Compound 5h, (E/Z)-6-Chloro-3-[4-(pyridin-2-ylmethoxy)benzylidene]indolin-2-one]	5.33%	31.4%	49.4%	24.7%	56.7%	31.6%	47.8%	19.7%	14.3%	20%	61.6%	18%	20%	23.9%	-2.1%	49.6%	26.2%	39%	18.7%	38%	inhibition at 10 µM (OVCAR-3): 6.16%; inhibition at 10 µM (RXF 393): 38.2%; inhibition at 10 µM (PC-3): 54.7%; inhibition at 10 µM (DU-145): 39.6%; inhibition at 10 µM (BT-549): 33.8%; inhibition at 10 µM (MDA-MB-468): 60.8%; inhibition at 10 µM (SR): 42.8%; inhibition at 10 µM (OVCAR-4): 75.8%
